Read-outs that look alike come from different tables or passages of the source.
Tests used:
[1] = target: T1, human EP2 receptors (Homo sapiens, UniProt P43116); assay: Competition radioligand binding ([3H]PGE2), EP2; conditions: unit inferred; read-out: EP2 data Ki
T1 construct: expressed in transfected cells; host or cells: HEK 293
Method: Competition binding experiments were performed in a medium containing Hank's balanced salt solution, […], membranes (˜60 μg protein) or 2×10^5 cells from HEK 293 cells stably expressing human EP2 receptors, [^3H]PGE2 (10 nM) and various concentrations of test compounds in a total volume of 300 μl. Reaction mixtures were incubated at 23° C. for 60 min, and were filtered over Whatman GF/B filters under vacuum. Filters were washed three times with 5 ml ice-cold buffer containing 50 mM Tris/HCl (pH 7.3). Non-specific binding was estimated in the presence of excess unlabeled PGE2 (10 μM). Binding data fitted to the binding model for a single class of binding sites, using nonlinear regression analysis. IC50 values thus obtained were converted to Ki using the equation of Ki=(IC50/(1+[L]/KD) where [L] represents PGE2 concentration (10 nM) and KD the dissociation constant for [^3H]PGE2 at human EP2 receptors (40 nM).
(§1) HEK-293 cells stably expressing the human or feline FP receptor, or EP1, EP2, or EP4 receptors were washed with TME buffer, scraped from the bottom of the flasks, and homogenized for 30 sec using a Brinkman PT 10/35 polytron. TME buffer was added to achieve a final 40 ml volume in the centrifuge tubes (the composition of TME is 100 mM TRIS base, 20 mM MgCl2, […]; 10N HCl is added to achieve a pH of 7.4).
(§2) The cell homogenate was centrifuged at 19000 r.p.m. for 20 min at 4° C. using a Beckman Ti-60 rotor. The resultant pellet was resuspended in TME buffer to give a final 1 mg/ml protein concentration, as determined by Biorad assay. Radioligand binding competition assays vs. [^3H-]17 —phenyl PGF2α (5 nM) were performed in a 100 μl volume for 60 min. Binding reactions were started by adding plasma membrane fraction. The reaction was terminated by the addition of 4 ml ice-cold TRIS-HCl buffer and rapid filtration through glass fiber GF/B filters using a Brandel cell harvester. The filters were washed 3 times with ice-cold buffer and oven dried for one hour.
(§3) [^3H-] PGE2 (specific activity 180 Ci mmol) was used as the radioligand for EP receptors. [^3H] 17-phenyl PGF2α was employed for FP receptor binding studies. Binding studies employing EP1, EP2, EP4 and FP receptors were performed in duplicate in at least three separate experiments. A 200 μl assay volume was used. Incubations were for 60 min at 25° C. and were terminated by the addition of 4 ml of ice-cold 50 mM TRIS-HCl, followed by rapid filtration through Whatman GF/B filters and three additional 4 ml washes in a cell harvester (Brandel). Competition studies were performed using a final concentration of 5 nM [^3H]—PGE2, or 5 nM [^3H] 17-phenyl PGF2α and non-specific binding determined with 10^−5M of unlabeled PGE2, or 17-phenyl PGF2α, according to receptor subtype studied.

[2] = target: T2, EP4 receptors (Homo sapiens, UniProt P35408); assay: Radioligand binding ([3H]PGE2), EP4; conditions: unit inferred; read-out: EP4 data KI
T2 construct: expressed in transfected cells; host or cells: HEK-293
Method: as §1, §2, §3

[3] = target: T3, hEP2/Gqs5 (Homo sapiens, UniProt P43116); assay: FLIPR calcium signal, hEP2; format: cell-based
T3 construct: expressed in transfected cells; host or cells: HEK-293(EBNA)
Method: (§4) HEK-293(EBNA) cells, stably expressing one type or subtype of recombinant human prostaglandin receptors (prostaglandin receptors expressed: hDP/Gqs5; hEP1; hEP2/Gqs5; hEP3A/Gqi5; hEP4/Gqs5; hFP; hIP; hTP), were cultured in 100 mm culture dishes in high-glucose DMEM medium containing 10% fetal bovine serum, 2 mM 1-glutamine, 250 μg/ml geneticin (G418) and 200 μg/ml hygromycin B as selection markers, and 100 units/ml penicillin G, 100 μg/ml streptomycin and 0.25 μg/ml amphotericin B. • (b) Calcium Signal Studies on the FLIPR™
(§5) Cells were seeded at a density of 5×10^4 cells per well in Biocoat® Poly-D-lysine-coated black-wall, clear-bottom 96-well plates (Becton-Dickinson) and allowed to attach overnight in an incubator at 37° C. Cells were then washed two times with HBSS-HEPES buffer (Hanks Balanced Salt Solution without bicarbonate and phenol red, 20 mM HEPES, pH 7.4) using a Denley Cellwash plate washer (Labsystems). After 45 minutes of dye-loading in the dark, using the calcium-sensitive dye Fluo-4 AM at a final concentration of 2 μM, plates were washed four times with HBSS-HEPES buffer to remove excess dye leaving 100 μl in each well. Plates were re-equilibrated to 37° C. for a few minutes.
(§6) Cells were excited with an Argon laser at 488 nm, and emission was measured through a 510-570 nm bandwidth emission filter (FLIPR™, Molecular Devices, Sunnyvale, Calif.). Drug solution was added in a 50 μl volume to each well to give the desired final concentration. The peak increase in fluorescence intensity was recorded for each well. On each plate, four wells each served as negative (HBSS-HEPES buffer) and positive controls (standard agonists: BW245C (hDP); PGE2 (hEP1; hEP2/Gqs5; hEP3A/Gqi5; hEP4/Gqs5); PGF2α (hFP); carbacyclin (hIP); U-46619 (hTP), depending on receptor). The peak fluorescence change in each drug-containing well was then expressed relative to the controls.
(§7) Compounds were tested in a high-throughput (HTS) or concentration-response (CoRe) format. In the HTS format, forty-four compounds per plate were examined in duplicates at a concentration of 10^−5 M. To generate concentration-response curves, four compounds per plate were tested in duplicates in a concentration range between 10^−5 and 10^−11 M. The duplicate values were averaged. In either, HTS or CoRe format each compound was tested on at least 3 separate plates using cells from different passages to give an n≧3.

[4] = target: T4, hEP4/Gqs5 (Homo sapiens, UniProt P35408); assay: FLIPR calcium signal, hEP4; format: cell-based; conditions: unit inferred; read-out: EP4 data flipr EC50
T4 construct: expressed in transfected cells; host or cells: HEK-293(EBNA)
Method: as §4, §5, §6, §7

[5] = target: T5, hDP/Gqs5 (Homo sapiens, UniProt Q13258); assay: FLIPR calcium signal, hDP; format: cell-based
T5 construct: expressed in transfected cells; host or cells: HEK-293(EBNA)
T5 sequence (Q13258 1-359): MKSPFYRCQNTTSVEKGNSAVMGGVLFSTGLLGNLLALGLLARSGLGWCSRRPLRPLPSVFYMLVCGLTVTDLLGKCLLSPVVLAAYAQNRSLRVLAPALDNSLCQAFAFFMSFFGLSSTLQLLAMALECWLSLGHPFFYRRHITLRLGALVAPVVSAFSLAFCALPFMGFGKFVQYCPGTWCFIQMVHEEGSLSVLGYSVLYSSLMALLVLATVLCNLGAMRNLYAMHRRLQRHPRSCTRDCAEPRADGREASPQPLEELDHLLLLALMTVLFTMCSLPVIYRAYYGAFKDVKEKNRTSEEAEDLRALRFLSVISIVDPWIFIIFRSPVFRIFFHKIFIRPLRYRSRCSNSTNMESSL
Method: as §4, §5, §6, §7

[6] = target: T6, HEK-EBNA cells expressing a PG EP2 receptor subtype (Homo sapiens, UniProt P43116); assay: cAMP assay, EP2; format: cell-based; conditions: unit inferred; read-out: EP2 data cAMP EC50
T6 construct: expressed in transfected cells; host or cells: HEK-EBNA
Method: A 384-well drug plate was prepared to contain 6 test compounds, PGE2 and cAMP in 16 serial dilutions in triplicate, using a Biomek station. HEK-EBNA cells expressing a target PG receptor subtype (EP2 or EP4) were suspended in a stimulation buffer (HBSS, 0.1% BSA, 0.5 mM IBMX and 5 mM HEPES, pH 7.4) in a density of 10^4 cells/5 μl. The reaction was initiated by mixing 5 μL drug dilutions with 5 μl of HEK-EBNA cells in a well, carried out for 30 min at room temperature, and followed by the addition of 5 μl anti-cAMP acceptor beads in the control buffer with Tween-20 (25 mM NaCl, 0.03% Tween-20, 5 mM HEPES, pH7.4). After 30 min in the dark at room temperature, the mixtures were incubated with 15 μl biotinylated-cAMP/strepavidin donor beads in Lysis/Detection buffer (0.1% BSA, 0.3% Tween-20 and 5 mM HEPES, pH7.4) for 45 min at the room temperature. Fluorescence changes were read using a Fusion-alpha HT microplate reader.

[7] = target: T7, hTP (Homo sapiens, UniProt P21731); assay: FLIPR calcium signal, hTP; format: cell-based; conditions: read-out: FUNCTIONAL Ca2+ EC50 HTP
T7 construct: expressed in transfected cells; host or cells: HEK-293(EBNA)
T7 sequence (P21731 1-343): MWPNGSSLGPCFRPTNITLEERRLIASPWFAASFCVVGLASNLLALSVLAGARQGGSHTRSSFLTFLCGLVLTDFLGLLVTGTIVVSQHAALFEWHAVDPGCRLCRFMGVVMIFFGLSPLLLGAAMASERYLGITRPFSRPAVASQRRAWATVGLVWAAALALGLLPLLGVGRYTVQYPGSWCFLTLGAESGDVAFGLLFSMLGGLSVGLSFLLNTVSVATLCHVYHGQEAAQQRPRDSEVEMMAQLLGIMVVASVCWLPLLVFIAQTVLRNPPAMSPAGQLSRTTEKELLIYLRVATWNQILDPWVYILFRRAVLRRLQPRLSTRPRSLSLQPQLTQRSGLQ
Method: as §4, §5, §6, §7

[8] = target: T8, hEP3A/Gqi5 (Homo sapiens, UniProt P43115); assay: FLIPR calcium signal, hEP3A; format: cell-based; conditions: read-out: Other Receptors EC50 hEP3A
T8 construct: expressed in transfected cells; host or cells: HEK-293(EBNA)
T8 sequence (P43115 1-390): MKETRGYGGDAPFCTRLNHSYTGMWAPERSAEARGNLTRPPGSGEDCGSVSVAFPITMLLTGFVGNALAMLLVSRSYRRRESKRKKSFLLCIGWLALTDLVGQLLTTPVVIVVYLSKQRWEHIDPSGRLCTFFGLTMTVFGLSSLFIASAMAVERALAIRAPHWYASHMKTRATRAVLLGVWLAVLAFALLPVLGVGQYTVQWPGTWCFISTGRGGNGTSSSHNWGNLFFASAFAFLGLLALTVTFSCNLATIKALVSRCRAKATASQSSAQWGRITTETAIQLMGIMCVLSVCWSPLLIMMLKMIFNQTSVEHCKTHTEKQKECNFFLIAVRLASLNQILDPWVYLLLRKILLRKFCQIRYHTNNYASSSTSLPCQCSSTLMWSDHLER
Method: as §4, §5, §6, §7

[9] = unit inferred, other columns of the table in nM, read-out: EP2 data flipr EC50
[10] = read-out: Other Receptors EC50 hDP

T3 sequence (P43116 whole entry): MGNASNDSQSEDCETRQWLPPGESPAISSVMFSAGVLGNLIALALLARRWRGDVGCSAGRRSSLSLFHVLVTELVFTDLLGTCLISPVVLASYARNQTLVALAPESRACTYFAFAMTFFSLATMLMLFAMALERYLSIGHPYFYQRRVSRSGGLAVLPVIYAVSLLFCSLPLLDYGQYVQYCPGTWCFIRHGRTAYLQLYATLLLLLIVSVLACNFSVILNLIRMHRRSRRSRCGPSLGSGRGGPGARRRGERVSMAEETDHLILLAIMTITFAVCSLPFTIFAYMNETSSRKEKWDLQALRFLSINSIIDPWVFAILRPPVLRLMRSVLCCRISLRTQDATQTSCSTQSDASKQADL
T6 sequence (P43116 whole entry): as above
T1 sequence (P43116 whole entry): as above
T2 sequence (P35408 whole entry): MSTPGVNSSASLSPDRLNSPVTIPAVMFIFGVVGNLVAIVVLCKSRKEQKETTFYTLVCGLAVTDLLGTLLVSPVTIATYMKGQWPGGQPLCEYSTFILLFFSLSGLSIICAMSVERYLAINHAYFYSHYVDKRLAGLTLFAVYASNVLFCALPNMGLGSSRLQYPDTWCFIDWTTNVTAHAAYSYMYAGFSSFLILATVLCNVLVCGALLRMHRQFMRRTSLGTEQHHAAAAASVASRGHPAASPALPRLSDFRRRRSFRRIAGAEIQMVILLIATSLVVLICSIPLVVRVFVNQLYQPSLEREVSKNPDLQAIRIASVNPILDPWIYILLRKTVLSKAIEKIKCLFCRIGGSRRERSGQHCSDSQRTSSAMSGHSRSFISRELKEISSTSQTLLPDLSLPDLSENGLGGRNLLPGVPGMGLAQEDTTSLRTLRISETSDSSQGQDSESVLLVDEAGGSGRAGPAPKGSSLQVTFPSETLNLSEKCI
T4 sequence (P35408 whole entry): as above

**Q.** What does the source list for `CCC(O)c1ccc(N2C(=O)CC[C@@H]2COCc2ccc(C(=O)O)s2)cc1` (stereo partly drawn)?
**A.** Ki [1]: 5730 nM; Ki [2]: > 10000 nM; EC50 [3, 9]: 1810 nM; EC50 [4]: > 10000 nM; EC50 [5, 10]: 7560 nM; EC50 [6]: 312 nM

**Q.** For `CCCCCC(O)c1ccc(N2C(=O)CC[C@@H]2COCc2ccc(C(=O)O)s2)cc1` (stereo partly drawn), which Ki [1] is on record?
**A.** 115 nM

**Q.** What about the Ki [2] of the same compound?
**A.** > 10000 nM

**Q.** And the EC50 [3, 9]?
**A.** 8 nM

**Q.** And the EC50 [4]?
**A.** > 10000 nM

**Q.** What about the EC50 [5, 10] of the same compound?
**A.** 3230 nM

**Q.** Which EC50 [7] does the source give for `CCCC1([C@@H](O)c2cccc([C@H]3CCC(=O)[C@@H]3C/C=C\CCCC(=O)OC)c2)CCC1` here?
**A.** > 10000 nM

**Q.** How did the EC50 ([3]; read-out: FUNCTIONAL Ca2+ EC50 HEP2) turn out when `COC(=O)CCCCCC[C@H]1C(=O)CC[C@@H]1c1ccc(C(O)C2CCCCC2)cc1` (stereo partly drawn) was run?
**A.** > 10000 nM

**Q.** And the EC50 [7]?
**A.** > 10000 nM

**Q.** For `CCCCCCC(O)c1ccc(N2C(=O)CC[C@@H]2COCc2ccc(C(=O)O)s2)cc1` (stereo partly drawn) [drawing 141], which Ki [1] is on record?
**A.** 190 nM

**Q.** And the Ki [2]?
**A.** > 10000 nM

**Q.** And the EC50 [3, 9]?
**A.** 20 nM

**Q.** And the EC50 [5, 10]?
**A.** 5760 nM

**Q.** What about the EC50 [6] of the same compound?
**A.** 1.5 nM

**Q.** How did the EC50 [3, 9] turn out when `CCCCCCC(O)c1ccc(N2C(=O)CC[C@@H]2CCCc2ccc(C(=O)O)s2)cc1` (stereo partly drawn) [drawing 154] was run?
**A.** 30 nM

**Q.** And the EC50 [8]?
**A.** 47 nM

**Q.** What about the EC50 [4] of the same compound?
**A.** > 10000 nM

**Q.** And the EC50 [5, 10]?
**A.** 105 nM

**Q.** With `CCCCCCC(O)c1ccc(N2C(=O)CC[C@@H]2COCc2ccc(C(=O)O)s2)cc1` (stereo partly drawn) [drawing 169] as the compound, how does the Ki [1] read?
**A.** 190 nM

**Q.** And the Ki [2]?
**A.** > 10000 nM

**Q.** And the EC50 [3, 9]?
**A.** 20 nM

**Q.** And the EC50 [5, 10]?
**A.** 5760 nM

**Q.** What about the EC50 [6] of the same compound?
**A.** 1.5 nM

**Q.** For `CCCCCCC(O)c1ccc(N2C(=O)CC[C@@H]2CCCc2ccc(C(=O)O)s2)cc1` (stereo partly drawn) [drawing 182], which EC50 [3, 9] is on record?
**A.** 30 nM

**Q.** What about the EC50 [8] of the same compound?
**A.** 47 nM

**Q.** What about the EC50 [4] of the same compound?
**A.** > 10000 nM

**Q.** And the EC50 [5, 10]?
**A.** 105 nM

**Q.** `CCCC1([C@@H](O)c2ccc([C@H]3CCC(=O)[C@@H]3C/C=C\CCCC(=O)O)cc2)CCC1` [drawing 191] was tested. Which EC50 ([5]; read-out: FUNCTIONAL Ca2+ EC50 HDP) did it give?
**A.** > 10000 nM
